Numbers after ± are expanded uncertainties.
Experiments:
[1] = xn = mol fraction of the nth substance listed; conditions: 100 kPa, Liquid, x2 = 0; for speed of sound: Frequency=3 MHz, Single path-length method; for mass density: Vibrating tube method
[2] = 100 kPa, Liquid; for speed of sound: Frequency=3 MHz, Single path-length method; for mass density: Vibrating tube method

SMILES	speed of sound ([1]; 293.15 K)	mass density ([1]; 293.15 K)	speed of sound ([1]; 298.15 K)	mass density ([1]; 298.15 K)	speed of sound ([1]; 303.15 K)	mass density ([1]; 303.15 K)	speed of sound ([1]; 308.15 K)	mass density ([1]; 308.15 K)	speed of sound ([2]; 293.15 K)	mass density ([2]; 293.15 K)	speed of sound ([2]; 298.15 K)	mass density ([2]; 298.15 K)	speed of sound ([2]; 303.15 K)	mass density ([2]; 303.15 K)	speed of sound ([2]; 308.15 K)	mass density ([2]; 308.15 K)
CCC(C)O (centres undefined) [butan-2-ol] + CC(C)NC(C)C	1229.9 ± 6.2 m/s	806.952 ± 1.4 kg/m3	1212.1 ± 6.2 m/s	802.847 ± 1.4 kg/m3	1194.1 ± 6.2 m/s	798.651 ± 1.4 kg/m3	1176 ± 6.2 m/s	794.363 ± 1.4 kg/m3								
CCCC(C)O (centres undefined) [pentan-2-ol] + CCCCNCCCC	1250.3 ± 6.5 m/s	809.399 ± 1.5 kg/m3	1232.4 ± 6.5 m/s	805.37 ± 1.5 kg/m3	1214.1 ± 6.5 m/s	801.27 ± 1.5 kg/m3	1195.7 ± 6.5 m/s	797.08 ± 1.5 kg/m3								
CCCC(C)O (centres undefined) [pentan-2-ol]									1250.3 ± 6.5 m/s	809.399 ± 1.5 kg/m3	1232.4 ± 6.5 m/s	805.37 ± 1.5 kg/m3	1214.1 ± 6.5 m/s	801.27 ± 1.5 kg/m3	1195.7 ± 6.5 m/s	797.08 ± 1.5 kg/m3
CCCCNCCCC [dibutylamine]									1260.1 ± 6.3 m/s	759.579 ± 1.4 kg/m3	1240.1 ± 6.3 m/s	755.48 ± 1.4 kg/m3	1220.3 ± 6.3 m/s	751.374 ± 1.4 kg/m3	1200.6 ± 6.3 m/s	747.268 ± 1.4 kg/m3
CC(C)NC(C)C [diisopropylamine]									1116.4 ± 6.3 m/s	717.305 ± 1.4 kg/m3	1093.8 ± 6.3 m/s	712.441 ± 1.4 kg/m3	1071.1 ± 6.3 m/s	707.55 ± 1.4 kg/m3	1043.5 ± 6.3 m/s	702.661 ± 1.4 kg/m3
CCC(C)O (centres undefined) [butan-2-ol]									1229.9 ± 6.2 m/s	806.952 ± 1.4 kg/m3	1212.1 ± 6.2 m/s	802.847 ± 1.4 kg/m3	1194.1 ± 6.2 m/s	798.651 ± 1.4 kg/m3	1176 ± 6.2 m/s	794.363 ± 1.4 kg/m3
CCC(C)O (centres undefined) [butan-2-ol] + CCCCNCCCC	1229.9 ± 6.2 m/s	806.952 ± 1.4 kg/m3	1212.1 ± 6.2 m/s	802.847 ± 1.4 kg/m3	1194.1 ± 6.2 m/s	798.651 ± 1.4 kg/m3	1176 ± 6.2 m/s	794.363 ± 1.4 kg/m3								
CCCC(C)O (centres undefined) [pentan-2-ol] + CC(C)NC(C)C	1250.3 ± 6.5 m/s	809.399 ± 1.5 kg/m3	1232.4 ± 6.5 m/s	805.37 ± 1.5 kg/m3	1214.1 ± 6.5 m/s	801.27 ± 1.5 kg/m3	1195.7 ± 6.5 m/s	797.08 ± 1.5 kg/m3								
